The test deals with ABCA1 mRNA. Kind of test: ABCA1 mRNA induction in THP-1 cells, QuantiGene branched DNA assay. It counts as cell-based. The note with it: 18-20 hours; for fold induction at 10 µM: Homo sapiens, read-out: ABCA1 Induction Fold Increase over DMSO Vehicle. The method, then: Modulation of expression of ABCA1 mRNA levels by the compounds of the invention was determined in the following assays.
Induction of ABC1 in THP-1 cells, was measured using QuantiGene® branched DNA assay as per manufacturer's instructions. Cultures of THP-1 were grown to subconfluence in DMEM/10% FBS before replacement with DMEM/BSA and 10 and 3 μM concentrations of the test compounds in DMSO for 18-20 hours. After treatment of cells with compounds, the cells were lysed with lysis buffer at 37° C. for 20 minutes. The cell lysate and ABCA1 specific probe (Genospectra, Inc., Fremont, Calif.) mix were added to the 96 well capture plate and hybridized at 53° C. for 16-18 hours. The signal was amplified using the amplifier and label probes provided with the QuantiGene® assay followed by addition of a luminescent alkaline phosphatase substrate, dioxitane. Luminescence was quantified in Victor V plate reader.
Step 1 • Cells are lysed to release mRNA in the presence of target probes. Target mRNA from lysed cells was then captured by hybridization and transferred to the Capture Plate.
Step 2 • Signal amplification was performed by hybridization of the bDNA Amplifier and Label Probe.
Step 3 • Addition of chemiluminescence substrate yielded a QuantiGene® signal proportional to the amount of mRNA present in the sample.
Table 1 presents the relative fold increase in ABCA1 expression over DMSO for compounds of the invention when tested at a concentration of 10 μM.

For `Cc1ccc(CNC(=O)C2CCC(CN(Cc3ccccc3)S(=O)(=O)c3cc(Cl)ccc3Cl)CC2)cc1` (stereo not shown) [Compound 27, [4-({[(2,5-dichlorophenyl)sulfonyl]benzylamino}methyl)cyclohexyl]-N-[(4-methylphenyl)methyl]carboxamide], the fold induction at 10 µM is 3.7.
Same read-out and setting: then `Cc1ccc(CNC(=O)C2CCC(CN(Cc3ccccc3)S(=O)(=O)c3cccc(Cl)c3)CC2)cc1` (stereo not shown) [Compound 20, [4-({[(3-chlorophenyl)sulfonyl]benzylamino}methyl)cyclohexyl]-N-[(4-methylphenyl)methyl]carboxamide], with 4.3.
The same measure, in the same setting: then `Cc1ccc(CNC(=O)C2CCC(CN(Cc3ccccc3)S(=O)(=O)c3cccs3)CC2)cc1` (stereo not shown) [Compound 15, N-[(4-methylphenyl)methyl](4-{[benzyl(2-thienylsulfonyl)amino]methyl}cyclohexyl)carboxamide], with 4.3; and `Cc1ccc(CNC(=O)C2CCC(CN(Cc3ccccc3)S(=O)(=O)c3cccc(C(F)(F)F)c3)CC2)cc1` (stereo not shown) [Compound 36, N-[(4-methylphenyl)methyl]{4-[(benzyl{[3-(trifluoromethyl)phenyl]sulfonyl}amino)methyl]cyclohexyl}carboxamide], with 2.7; and `Cc1ccc(CNC(=O)C2CCC(CN(Cc3ccccc3)S(=O)(=O)c3ccc(C)c(Cl)c3)CC2)cc1` (stereo not shown) [Compound 25, [4-({[(3-chloro-4-methylphenyl)sulfonyl]benzylamino}methyl)cyclohexyl]-N-[(4-methylphenyl)methyl]carboxamide], with 3.5.
On the same count and under the same terms, then `Cc1ccc(CNC(=O)C2CCC(CN(Cc3ccccc3)S(=O)(=O)c3ccccc3F)CC2)cc1` (stereo not shown) [Compound 21, [4-({[(2-fluorophenyl)sulfonyl]benzylamino}methyl)cyclohexyl]-N-[(4-methylphenyl)methyl]carboxamide], with 4.4.
For `Cc1ccc(CNC(=O)C2CCC(CN(Cc3ccccc3)S(=O)(=O)c3cc(F)cc(F)c3)CC2)cc1` (stereo not shown) [Compound 17, [4-({[(3,5-difluorophenyl)sulfonyl]benzylamino}methyl)cyclohexyl]-N-[(4-methylphenyl)methyl]carboxamide], the fold induction at 10 µM was 4.5.
For `Cc1ccc(CNC(=O)C2CCC(CN([C@H](C)c3ccccc3)S(=O)(=O)c3ccccc3)CC2)cc1` (stereo partly drawn) [Compound 5, (4-{[((1R)-1-phenylethyl)(phenylsulfonyl)amino]methyl}cyclohexyl)-N-[(4-methylphenyl)methyl]carboxamide], the fold induction at 10 µM was 6.4.
Same read-out and setting: then `Cc1ccc(CNC(=O)C2CCC(CN(Cc3cccc(F)c3F)S(=O)(=O)c3ccccc3)CC2)cc1` (stereo not shown) [Compound 2, [4-({[(2,3-difluorophenyl)methyl](phenylsulfonyl)amino}methyl)cyclohexyl]-N-[(4-methylphenyl)methyl]carboxamide], with 6.3; and `Cc1ccc(CNC(=O)C2CCC(CN(Cc3ccccc3)S(=O)(=O)c3cc(C)cc(C)c3)CC2)cc1` (stereo not shown) [Compound 23, [4-({[(3,5-dimethylphenyl)sulfonyl]benzylamino}methyl)cyclohexyl]-N-[(4-methylphenyl)methyl]carboxamide], with 4.1.
The same measure, in the same setting: then `Cc1ccc(CNC(=O)[C@H]2CC[C@H](CN([C@@H](C)c3ccccc3)S(=O)(=O)c3ccccc3)CC2)cc1` [Compound 6, (4-{[((1S)-1-phenylethyl)(phenylsulfonyl)amino]methyl}cyclohexyl)-N-[(4-methylphenyl)methyl]carboxamide], with 3.2; and `Cc1ccc(CNC(=O)C2CCC(CN(Cc3ccccc3)S(=O)(=O)c3ccc(-c4ccccc4)cc3)CC2)cc1` (stereo not shown) [Compound 48, N-[(4-methylphenyl)methyl][4-({benzyl[(4-phenylphenyl)sulfonyl]amino}methyl)cyclohexyl]carboxamide], with 2.9.
With “{4-[({[4-(methylethyl)phenyl]sulfonyl}benzylamino)methyl]cyclohexyl}-N-[(4-methylphenyl)methyl]carboxamide [Compound 28]”, the “ABCA1 Induction Fold Increase over DMSO Vehicle” value (10 μM) is listed as 2.7 fold.
As to `Cc1ccc(CNC(=O)C2CCC(CN(Cc3ccccc3)S(=O)(=O)c3cc(F)ccc3F)CC2)cc1` (stereo not shown) [Compound 19, [4-({[(2,5-difluorophenyl)sulfonyl]benzylamino}methyl)cyclohexyl]-N-[(4-methylphenyl)methyl]carboxamide], the fold induction at 10 µM came to 4.9.
The same measure, in the same setting: then `Cc1ccc(CNC(=O)C2CCC(CN(Cc3ccccc3)S(=O)(=O)c3ccccc3C)CC2)cc1` (stereo not shown) [Compound 9, N-[(4-methylphenyl)methyl][4-({[(2-methylphenyl)sulfonyl]benzylamino}methyl)cyclohexyl]carboxamide], with 4.9; and `Cc1ccc(CNC(=O)C2CCC(CN(Cc3ccccc3)S(=O)(=O)c3ccc(Cl)cc3Cl)CC2)cc1` (stereo not shown) [Compound 14, [4-({[(2,4-dichlorophenyl)sulfonyl]benzylamino}methyl)cyclohexyl]-N-[(4-methylphenyl)methyl]carboxamide], with 3.5.
Still for that read-out and setting: then `Cc1ccc(CNC(=O)C2CCC(CN(Cc3ccccc3)S(=O)(=O)c3ccc(C)cc3)CC2)cc1` (stereo not shown) [Compound 43, N-[(4-methylphenyl)methyl][4-({[(4-methylphenyl)sulfonyl]benzylamino}methyl)cyclohexyl]carboxamide], with 5.4; and `Cc1ccc(CNC(=O)C2CCC(CN(Cc3ccccc3)S(=O)(=O)c3ccc(F)c(F)c3F)CC2)cc1` (stereo not shown) [Compound 16, N-[(4-methylphenyl)methyl][4-({benzyl[(2,3,4-trifluorophenyl)sulfonyl]amino}methyl)cyclohexyl]carboxamide], with 1.9; and `Cc1ccc(CNC(=O)C2CCC(CN(Cc3ccccc3)S(=O)(=O)c3ccc(F)c(Cl)c3)CC2)cc1` (stereo not shown) [Compound 40, [4-({[(3-chloro-4-fluorophenyl)sulfonyl]benzylamino}methyl)cyclohexyl]-N-[(4-methylphenyl)methyl]carboxamide], with 2.6.

For the origin of these results see patent US7579504B2, “ABCA1 elevating compounds” (Gilead Sciences, Inc., priority 2005, dated 2009).
